Laboratory results as given in PMC5623054, “Cloning and Functional Characterization of Octβ2-Receptor and Tyr1-Receptor in the Chagas Disease Vector, Rhodnius prolixus” (Frontiers in Physiology, 2017).
Each block holds one compound with its values, some of them ahead of it.

Assays:
Format in all cases: cell-based
RhoprTyr1-R [1] = target: T1, RhoprTyr1-R (Rhodnius prolixus, UniProt A0A291L8I9); assay: antagonism of tyramine-induced aequorin luminescence in HEK293/CNG cells, single dose […]
T1 construct: full ORF (455 amino acids; GenBank MF377527) transiently expressed in HEK293/CNG cells
T1 sequence (A0A291L8I9 1-455): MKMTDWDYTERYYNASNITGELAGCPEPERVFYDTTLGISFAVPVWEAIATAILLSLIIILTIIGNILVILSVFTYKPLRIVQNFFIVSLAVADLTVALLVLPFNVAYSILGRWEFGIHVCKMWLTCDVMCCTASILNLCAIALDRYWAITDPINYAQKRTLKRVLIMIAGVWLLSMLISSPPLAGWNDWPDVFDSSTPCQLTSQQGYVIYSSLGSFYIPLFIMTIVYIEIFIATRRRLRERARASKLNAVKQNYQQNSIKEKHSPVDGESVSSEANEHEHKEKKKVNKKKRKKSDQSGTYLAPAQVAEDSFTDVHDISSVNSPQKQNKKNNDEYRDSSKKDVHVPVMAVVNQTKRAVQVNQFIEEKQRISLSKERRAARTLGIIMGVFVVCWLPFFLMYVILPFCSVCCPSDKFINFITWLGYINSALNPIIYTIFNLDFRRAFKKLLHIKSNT

RhoprTyr1-R [2] = target: T1, RhoprTyr1-R; assay: aequorin bioluminescence Ca2+ assay in transfected HEK293/CNG cells, dose-response (agonist)
RhoprOctβ2-R [3] = target: T2, RhoprOctβ2-R (Rhodnius prolixus, UniProt A0A291L8J3); assay: aequorin bioluminescence Ca2+ assay in transfected HEK293/CNG cells, dose-response (partial agonist)
T2 construct: full ORF (447 amino acids; GenBank MF377526) transiently expressed in HEK293/CNG cells
T2 sequence (A0A291L8J3 1-447): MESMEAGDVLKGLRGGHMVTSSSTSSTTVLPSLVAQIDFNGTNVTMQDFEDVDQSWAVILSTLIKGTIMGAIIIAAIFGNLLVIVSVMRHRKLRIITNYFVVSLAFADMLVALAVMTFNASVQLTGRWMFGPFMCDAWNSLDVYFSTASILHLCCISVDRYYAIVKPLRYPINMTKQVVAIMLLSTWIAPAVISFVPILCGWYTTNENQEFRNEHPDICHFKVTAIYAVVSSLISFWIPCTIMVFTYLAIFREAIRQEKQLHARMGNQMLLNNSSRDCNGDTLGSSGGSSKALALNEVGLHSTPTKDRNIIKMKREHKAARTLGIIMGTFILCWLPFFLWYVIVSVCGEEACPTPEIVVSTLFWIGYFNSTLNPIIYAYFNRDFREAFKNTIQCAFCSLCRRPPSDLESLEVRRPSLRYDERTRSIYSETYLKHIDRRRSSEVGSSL

RhoprOctβ2-R [4] = target: T2, RhoprOctβ2-R; assay: antagonism of octopamine-induced aequorin luminescence in HEK293/CNG cells, single dose […]
RhoprOctβ2-R [5] = target: T2, RhoprOctβ2-R; assay: aequorin bioluminescence Ca2+ assay in transfected HEK293/CNG cells, dose-response (full agonist)
RhoprOctβ2-R [6] = target: T2, RhoprOctβ2-R; assay: partial antagonism of octopamine-induced aequorin luminescence in HEK293/CNG cells, single dose […]

Compound: CC(COc1ccccc1)N(CCCl)Cc1ccccc1 (stereo not shown) [phenoxybenzamine]
- antagonism of tyramine-induced aequorin luminescence in HEK293/CNG cells, single (RhoprTyr1-R [1]): notably yohimbine and phenoxybenzamine, reduced the tyramine-induced activation of the RhoprTyr1-R

- EC50 (RhoprTyr1-R [2]): 0.0517 µM
- EC50 (RhoprOctβ2-R [3]): 3.85 µM
Compound: NCCc1ccc(O)cc1 [TA, tyramine]

Compound: CN(C)Cc1c[nH]c2ccccc12 [gramine]
- antagonism of octopamine-induced aequorin luminescence in HEK293/CNG cells, sing (RhoprOctβ2-R [4]): Phentolamine and gramine significantly reduced octopamine-induced receptor activation

- EC50 (RhoprTyr1-R [2]): 6.88 µM
- EC50 (RhoprOctβ2-R [5]): 367 nM
Compound: NCC(O)c1ccc(O)cc1 (stereo not shown) [OA, octopamine]

Compound: CCN(CC)CCNC(=O)c1cc(Cl)c(N)cc1OC [metoclopramide]
- partial antagonism of octopamine-induced aequorin luminescence in HEK293/CNG cel (RhoprOctβ2-R [6]): RhoprOctβ2-R was antagonized by phentolamine > gramine > metoclopramide
